Results as given in US20250115642A1, “PEPTIDE HAVING ANTIBACTERIAL, ANTI-INFLAMMATORY OR TISSUE REGENERATION ABILITY AND USE THEREOF” (priority 2022, published 2025).

Legend:
[1] = system: Aggregatibacter actinomycetemcomitans; assay: Inhibiting growth of periodontitis-causing bacteria (absorbance 600 nm); assay type: cell-based; conditions: Aa
Method: (§1) To evaluate the antibacterial activity, representative periodontitis-causing bacteria, Aggregatibacter actinomycetemcomitans and Porphyromonas gingivalis, were used. Each bacterium was inoculated into BHI (brain heart infusion) liquid medium and cultured in an anaerobic incubator at 37° C. and 120 rpm for 48 hours. After incubation, the peptide having the amino acid sequence of SEQ ID NO: 1 was treated at 100 μM, 250 μM, and 500 μM. As a positive control, minocycline (Merck, M9511) was inoculated at 500 ng/ml, and then 24 hours later, the absorbance was measured at 600 nm using a spectrophotometer to confirm a degree of bacterial growth.

[2] = system: Porphyromonas gingivalis; assay: as above; assay type: cell-based; conditions: Pg
Method: as §1

[3] = system: TNF-α; assay: ELISA of TNF-α secreted by LPS-treated THP-1 macrophages; assay type: cell-based, human; conditions: 1 μg/ml LPS, 200 μM peptide, 24 hours, compared with 20 ng/ml IL-4
Method: (§2) Anti-inflammatory activity was verified using human monocyte cell lines (THP-1, ATCC, TIB-202). In the case of monocyte cell lines, PMA (Phorbol 12-myristate 13-acetate, Merck, P1585) was inoculated to differentiate monocytes into macrophages, and then treated with 1 μg/ml LPS (lipopolysaccharide, Merck, L3024), an inflammation inducer. […] The amount of pro-inflammatory cytokines IL-6 (R&D system, D6050) and TNF-α secreted by cells present in the medium was confirmed through ELISA (enzyme-linked immunosorbent assay).

[4] = system: phosphorylated NF-κB; assay: Western blot of pNFkB in LPS-treated Raw264.7 cells; assay type: cell-based, mouse
Method: (§3) Raw264.7 cells were purchased from ATCC (American Type Culture Collection) and used in the experiment. Raw264.7 cells were cultured in a CO2 incubator at 37° C. supplied with 5% CO2 and 95% air using DMEM (Dulbecco's modified Eagle medium) medium supplemented with 10% FBS and 100 units/ml antibiotics (penicillin-streptomycin).
(§4) Raw264.7 cells were treated with 200 μM of the peptide having the amino acid sequence of SEQ ID NO: 1 for 30 minutes, and then treated with 1 μg/ml LPS (lipopolysaccharide, Merck, L3024). After 8 hours, the treated cells were collected, protease inhibitor cocktail and phosphatase inhibitor cocktail were added to Radioimmunoprecipitation assay buffer (RIPA buffer solution, Thermo Fisher, 89900), and the cells were treated to lyse the cells. After centrifuging the cell lysate and collecting the supernatant, the concentration of the cell lysate was measured using a bicinchoninic acid assay (BCA assay, Thermo Fisher, 23227), and RIPA buffer solution was added thereto to prepare the cell lysate to a final concentration of 5 mg/mL. Then, it was mixed with a buffer solution including 1M Tris-HCl (pH 6.8), 50% glycerol, and 10% SDS in a 4:1 ratio, and then sodium dodecyl sulfate-poly acrylamide gel electrophoresis (SDS-PAGE) was performed. […]

[5] = system: Raw264.7 cells; assay: Cell penetration ability at the cellular level (confocal microscopy); assay type: cell-based, mouse; conditions: Rhodamine B labeled peptide, 50, 100 and 200 μM, 1 hour
Method: Raw264.7 cells were distributed 3×10^4 each into a 4-well chamber and cultured in DMEM medium for 24 hours to stabilize the cells. After 24 hours, fluorescently labeled peptide was added to the medium at concentrations of 50, 100, and 200 μM. After 1 hour of peptide treatment, a degree of penetration of the peptide into cells was observed using a confocal scanning fluorescence microscope. Cell nuclei were stained using 4′,6-diamidino-2-phenylindole (DAPI, Thermo Fisher, D1306). DIC represents the case observed under a general microscope, Nuceli represents the nucleus of a cell, Peptide represents the degree of penetration of a peptide bound to rhodamine B, and MERGE represents an image that overlaps images of DIC, Nuclei, and the penetrated peptide.

[6] = system: IL-6; assay: ELISA of IL-6 secreted by LPS-treated THP-1 macrophages; assay type: cell-based, human; conditions: 1 μg/ml LPS, 200 μM peptide, 24 hours, compared with 20 ng/ml IL-4
Method: as §2

[7] = system: artificial biofilm of Aggregatibacter actinomycetemcomitans and Porphyromonas gingivalis; assay: Antibacterial activity in artificial biofilm on titanium disk (LIVE/DEAD staining); assay type: cell-based; conditions: 24 hours after inoculation; 50 μg/ml = 29 μM
Method: Periodontitis-causing bacteria exist in the oral cavity in a form of a biofilm, and thus in order to imitate this, an artificial biofilm was created on the surface of a titanium disk using A. a. (Aggregatibacter actinomycetemcomitans) and P. g. (Porphyromonas gingivalis) bacteria. Saliva and bacteria were mixed on a titanium disk, placed in BHI liquid medium, and cultured in an anaerobic incubator at 37° C. After 72 hours, 50 μg/ml (=29 μM), 100 μg/ml (=58 μM), 250 μg/ml (=144 μM), and 500 μg/ml (=288 μM) peptides and 1 μg/ml minocycline as a positive control were inoculated. 24 hours later after inoculation, a titanium disk with biofilm formed on the surface was obtained and the biofilm was stained using the Filmtracer LIVE/DEAD Biofilm Viability Kit (Thermo Fisher, L10316). Live bacteria are stained green, and dead bacteria are stained red. The titanium disk was observed using a confocal scanning fluorescence microscope.

[8] = system: phosphorylated IκBα; assay: Western blot of plkBa in LPS-treated Raw264.7 cells; assay type: cell-based, mouse
Method: as §3, §4

[9] = 200 μM peptide for 30 minutes, then 1 μg/ml LPS, 8 hours

GKCSTRGRKSSRRKK (PEPTIDE HAVING ANTIBACTERIAL, …ON OR TISSUE …ON) [SEQ ID NO: 1, 15-mer peptide having antibacterial, anti-inflammatory and cell penetrating ability]
survival rate of bacteria ([1]; at 250 μM or more, 24 hours): less than or equal to 50% | survival rate compared to minocycline ([1]; peptide 500 μM vs minocycline 500 ng/ml): higher than when treated with minocycline 500 ng/ml, but showed a similar effect | effect compared to minocycline ([2]; all concentration ranges (100, 250, 500 μM) vs minocycline 500 ng/ml): better effect than minocycline | survival rate of bacteria ([2]; at 100 μM or more, 24 hours): less than or equal to 50% | TNF-α value [3]: lowered to a similar level as when treated with IL-4 | expression of pNFκB [4, 9]: suppressed | effect on the expression of pNFκB ([4]; only the peptide, without LPS): no effect | concentration dependence of fluorescence intensity in cells [5]: as the concentration of peptide increased, the intensity of fluorescence also increased | fluorescence of rhodamine B in cells [5]: fluorescence of rhodamine B (red) could be confirmed | IL-6 value [6]: lowered to a similar level as when treated with IL-4 | concentration at which killed bacteria (red) were observed in biofilm [7]: ≥ 50 µg/mL | expression of plkBa [8, 9]: suppressed | effect on the expression of plkBa ([8]; only the peptide, without LPS): no effect
